This is an account of results in ChEMBL document CHEMBL1201862, “PubChem BioAssay data set” (2004).

Some test systems named below: SNB-78; DLD-1; LXFL 529; XF498; M19-MEL; DMS-114; BT-549; Hs-578T.
Common to all, as to experiment: inhibition of tumour cell growth, NCI panel, 48 h

Each structure is given as a SMILES string.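 Five concentrations, 48 hours, 96-well plates. Here, GI50 denotes the concentration required for 50% inhibition of growth.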 Active and inactive are the calls of the source. Cut-off read from the data, not from the text of the source: active = GI50 up to about 1.1 µM and inactive = higher. Bounds are passed on as bounds.

In the case of `CCN1CCC(O)(c2ccc(C)cc2)C(C(=O)c2ccc(C)cc2)C1` (stereo not drawn), the GI50 was > 51.8 µM (inactive) in the assay with SNB-78; 18.1 µM (inactive) with DLD-1; 17.4 µM (inactive) in the assay with LXFL 529; 18 µM (inactive) with XF498; > 47.3 µM (inactive) in the assay on M19-MEL.

As for `O=[N+]([O-])c1ccc(C2=NN(c3ccccc3)C[N+](c3ccc(Br)cc3)=N2)cc1`, the GI50 is > 100 µM (inactive) in the assay on SNB-78, > 100 µM (inactive) with DLD-1, 63.5 µM (inactive) with LXFL 529 and > 100 µM (inactive) with M19-MEL.

For the compound `Nc1ccc(C(=O)NN2C(=O)C(Cl)C2c2cc(Br)cc(Br)c2O)cc1` (stereo not drawn), the GI50 is 63.8 µM (inactive) in the assay on SNB-78; 13.3 µM (inactive) in the assay on DLD-1; 20.1 µM (inactive) in the assay on LXFL 529; 14.1 µM (inactive) in the assay on XF498; 11.9 µM (inactive) with M19-MEL; 4.22 µM (inactive) in the assay with DMS-114.

With `Cn1c(NC(=O)NC23CC4CC(CC(C4)C2)C3)nc2ccccc21`, the GI50 in the assay on SNB-78 was 23.8 µM (inactive); in the assay on DLD-1, > 100 µM (inactive); in the assay on LXFL 529 it was 86.1 µM (inactive); in the assay with M19-MEL, 57.5 µM (inactive).

Regarding `O=c1oc2ccccc2c(O)c1C(C/C(CCN1CCCC1)=N\Nc1ccccc1)c1ccccc1` (stereo not drawn), the GI50 in the assay with SNB-78 was > 100 µM (inactive); in the assay with DLD-1, 99.5 µM (inactive); in the assay with LXFL 529, 84.5 µM (inactive); in the assay with XF498 it was > 100 µM (inactive); in the assay with M19-MEL, 61.2 µM (inactive).

For `COc1cc(Nc2cnc3cc(N)ccc3n2)cc(OC)c1OC`, the GI50 with DLD-1 is > 100 µM (inactive); in the assay with LXFL 529 it was 82.4 µM (inactive); with XF498, 81.5 µM (inactive); in the assay with M19-MEL, 74.8 µM (inactive); in the assay with DMS-114, 65.8 µM (inactive).

`O=C(c1ccccc1)C(C(=O)c1ccccc1)C1(O)C(=O)c2ccccc2C1=O`: the GI50 in the assay with SNB-78 was 62.2 µM (inactive); in the assay with LXFL 529, 28.6 µM (inactive); in the assay with XF498 it was 84.1 µM (inactive); in the assay on M19-MEL, 16.6 µM (inactive); in the assay on DMS-114, > 10 µM (inactive).

On to `CC(C)CCCC(C)C1CCC2C3CC([N+](=O)[O-])=C4CC(O)CCC4(C)C3CCC12C` (stereo not drawn), for which the GI50 is 19 µM (inactive) in the assay with DLD-1; 18.7 µM (inactive) in the assay on LXFL 529; 22.3 µM (inactive) with XF498; 27.6 µM (inactive) in the assay with M19-MEL; 22 µM (inactive) in the assay on DMS-114.

As for `OCC(O)CNc1ccnc2cc(Cl)ccc12` (stereo not drawn), the GI50 in the assay with SNB-78, in the assay on DLD-1, with LXFL 529, with XF498, with M19-MEL and with DMS-114 was > 100 µM (inactive) each time.

With `Nc1nc(CCl)nc(Nc2ccccc2)n1`, the GI50 in the assay on DLD-1 is 36.9 µM (inactive); in the assay with LXFL 529 it was 14.8 µM (inactive); in the assay on M19-MEL, 29.4 µM (inactive); with DMS-114 it was 18.4 µM (inactive).

Consider `NC1=C(NC(=O)Cc2ccccc2F)C(=O)c2ccccc2C1=O`, for which the GI50 in the assay on DLD-1 was 16.6 µM (inactive); in the assay on M19-MEL, 4.5 µM (inactive); in the assay on DMS-114, 41.8 µM (inactive).

As for `OCc1ccc2c(c1)CC1(C2)Cc2cc3c(cc2C1)CCC3`, the GI50 is 2.81 µM (inactive) in the assay with BT-549 and 4.02 µM (inactive) in the assay on Hs-578T.

`CN1CCC2(CC1)SSC1(CCN(C)CC1)S2`: the GI50 is 23.9 µM (inactive) in the assay on BT-549 and > 100 µM (inactive) in the assay on Hs-578T.

Turning to `C[C@@H]1C(=O)CC2(O)[C@@]13C[C@@H](OC(=O)[C@@H]3O)[C@@H](C)[C@@]21COC1=O` (stereo partly drawn), the GI50 in the assay with BT-549 and in the assay with Hs-578T was > 100 µM (inactive) each time.

Turning to `c1cnn(CN(Cn2cccn2)Cn2cccn2)c1`, the GI50 in the assay with SNB-78, in the assay on DLD-1, in the assay on XF498, in the assay with M19-MEL and with DMS-114 was > 100 µM (inactive) throughout.

As to `N#CC(C#N)/N=N/c1ccc(-c2nc3ccccc3[nH]2)cc1`, the figures for the GI50 in the assay on BT-549 and in the assay with Hs-578T were 11 µM (inactive) and 52 µM (inactive), respectively.

As to `Cc1ccc(S(=O)(=O)N2CCNCCN(S(=O)(=O)c3ccc(C)cc3)CCNCC2)cc1`, the values for the GI50 with BT-549 and in the assay on Hs-578T were 19.1 µM (inactive) and 17.8 µM (inactive), respectively.

For the compound `CCNC(=O)c1ccc(C)c(/N=N/N(C)C)c1`, the GI50 with SNB-78, in the assay on DLD-1, in the assay on LXFL 529 and in the assay with M19-MEL was > 100 µM (inactive) each time.

In the case of `COC1OC(C)/C(=N/O)C2OC(C)(C)OC12` (stereo not drawn), the GI50 in the assay on BT-549 and with Hs-578T was > 100 µM (inactive) throughout.

As for `Cc1ccc(/N=C2N=C(Cl)/C(=C\c3ccccc3)N\2)cc1`, the GI50 in the assay on BT-549 and in the assay on Hs-578T was > 100 µM (inactive) throughout.

In the case of `Cc1ccc(OCC2OC(n3cnc4c(Cl)nc(Cl)nc43)CC2Oc2ccc(C)cc2)cc1` (stereo not drawn), the GI50 in the assay with BT-549 is 2.17 µM (inactive); with Hs-578T it was 1.9 µM (inactive).

On to `CCCCCCCCCCCCCCCCCCNC(=O)C(N)Cc1ccc(OCc2ccccc2)cn1` (stereo not drawn), for which the GI50 in the assay on BT-549 was 23.4 µM (inactive); in the assay on Hs-578T it was 21.6 µM (inactive).

In the case of `OC(CN1CCCCC1)c1ccc(/C=C/c2ccc(Cl)cc2)cc1` (stereo not drawn), the GI50 in the assay with BT-549 is > 100 µM (inactive); in the assay on Hs-578T, 50.1 µM (inactive).

As for `COc1ccc2[nH]c3cc4c(=O)c5cc(OC)ccc5[nH]c4cc3c(=O)c2c1`, the GI50 in the assay with BT-549 and with Hs-578T was > 100 µM (inactive) each time.

For the compound `Nc1nc(SCCc2ccccc2)c2nc[nH]c2n1`, the GI50 in the assay on BT-549 is 47.3 µM (inactive); with Hs-578T it was 64 µM (inactive).

As to `COc1cccc(/C=C2\N=C(Cl)OC2=O)c1O`, the GI50 with SNB-78 was > 100 µM (inactive); in the assay with DLD-1 it was > 76.7 µM (inactive); in the assay with LXFL 529 it was > 100 µM (inactive); in the assay with XF498, > 100 µM (inactive); in the assay on DMS-114 it was > 100 µM (inactive).

Consider `COc1ccc(NCc2cc(OC)c(OC)c(OC)c2)cc1`, for which the values for the GI50 in the assay with DLD-1 and in the assay with LXFL 529 were 0.345 µM (active) and 0.614 µM (active), respectively.

Consider `CC1CC/C(=C\c2ccc(Cl)cc2)C2OC(N)=C(C#N)C(c3ccc(Cl)cc3)=C12` (stereo not drawn), for which the GI50 in the assay with BT-549 is 15.2 µM (inactive); in the assay on Hs-578T, 15.6 µM (inactive).

With `Cc1cc(O)c(C=O)c2c1C(=O)Oc1c(CO)c(O)c3c(c1O2)C(O)OC3=O` (stereo not drawn) [SLAZINIC ACID], the results for the GI50 in the assay on BT-549 and in the assay on Hs-578T were > 100 µM (inactive) and 31.6 µM (inactive), respectively.

On to `COc1ccc2c3c([nH]c2c1[N+](=O)[O-])C(C)N(C(=O)/C=C/c1ccccc1)CC3` (stereo not drawn), for which the GI50 was 7.05 µM (inactive) with SNB-78 and 5.9 µM (inactive) in the assay on LXFL 529.

For the compound `COc1ccc2c(c1)CCc1c-2n(CCN2CCOCC2)c2ccc(OC)cc12`, the GI50 was > 100 µM (inactive) in the assay on BT-549 and 61.7 µM (inactive) in the assay with Hs-578T.

On to `OC1(c2ccccc2)CC2CCC(C1)N2CCc1ccccc1` (stereo not drawn), for which the GI50 in the assay with BT-549 is 40.1 µM (inactive); with Hs-578T it was 5.27 µM (inactive).

Turning to `CN[C@@H](Cc1cccc2ccccc12)C(=O)N[C@@H](CC(C)C)B(O)O`, the GI50 in the assay on BT-549 is < 0.01 µM (active); in the assay with Hs-578T, 0.0143 µM (active).

For `Nc1nc(N)c(-c2ccccc2)c(C(=O)Nc2ccccc2)n1`, the GI50 with SNB-78, with DLD-1, with XF498 and with M19-MEL was > 100 µM (inactive) each time.
